Assay results as given in patent US20250195521A1 (Revolution Medicines, Inc., priority 2020, published 2025).
Several values for one entry are separate records, joined by “and”; a condition that tells them apart may be missing. Equal values may be shown once. Read-outs that look alike come from different tables or passages of the source.

Assays:
[1] = system: NCI-H358 cells (K-Ras G12C); test: CellTiter-Glo cell viability, NCI-H358; assay type: cell-based, human; conditions: Homo sapiens, NCI-H358, 120 h, K-Ras G12C, 5-day treatment; read-out: H358 Cell Viability IC50
In short: (§1)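 Cells seeded, compound dispensed straight into wells, 5-day exposure. Plates brought to room temperature ~30 min, CellTiter-Glo luminescence measured. Normalized to DMSO (%), 4-parameter logistic fit.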

[2] = system: Capan-1 cells (K-Ras G12V); test: CellTiter-Glo cell viability, Capan-1; assay type: cell-based, human; conditions: Homo sapiens, CAPAN-1, 120 h, read-out: Capan-1 Cell Viability IC50
In short: as §1

[3] = system: K-Ras G12C (NCI-H358 cells); test: Potency assay: pERK in NCI-H358 cells; assay type: cell-based, human; conditions: Homo sapiens, read-out: pERK EC50 (H358 KRAS G12C)
In short: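 Cells plated the day before were exposed for 4 h at 37° C, 5% CO2 to a 10-point, 3-fold DMSO dilution series (10 mM top stock), in duplicate. Phospho-ERK was read by AlphaLISA SureFire Ultra or by In-Cell Western with DRAQ5 DNA stain, and IC50 came from a 4-parameter sigmoidal fit.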

[4] = target: K-Ras G12C(GMP-PNP) binding to BRAF RBD (Homo sapiens (Human), UniProt P01116+P62937, G12C); test: Disruption of BRAF RBD interaction with K-Ras (FRET / MOA assay), K-Ras G12C; assay type: biochemical
Chain of K-Ras G12C(GMP-PNP) binding to BRAF RBD (P01116 other isoform, or with tags, fused parts or gaps G12C): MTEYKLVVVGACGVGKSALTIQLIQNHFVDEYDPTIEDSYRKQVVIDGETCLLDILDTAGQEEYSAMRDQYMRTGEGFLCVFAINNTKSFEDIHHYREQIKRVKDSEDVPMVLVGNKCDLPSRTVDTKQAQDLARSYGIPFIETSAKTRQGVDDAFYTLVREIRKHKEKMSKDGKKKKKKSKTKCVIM
Chain of K-Ras G12C(GMP-PNP) binding to BRAF RBD (P62937 whole entry): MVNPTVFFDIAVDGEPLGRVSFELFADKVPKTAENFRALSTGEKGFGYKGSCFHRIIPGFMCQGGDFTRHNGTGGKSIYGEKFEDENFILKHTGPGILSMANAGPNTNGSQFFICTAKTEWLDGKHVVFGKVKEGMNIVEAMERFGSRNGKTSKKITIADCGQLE
In short: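 TR-FRET readout: after 3 h compound incubation at 25 °C, anti-His Eu and anti-GST allophycocyanin (10 and 50 nM final) added for a further 1.5 h. Dilution series was 10-point, 3-fold, top 30 μM final. Ras–cyclophilin A ternary complex formation blocks the BRAF RBD interaction; IC50 derived from reduced FRET ratio relative to DMSO.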

Structure (SMILES) | IC50 [1] [nM] | IC50 ([2]; K-Ras G12V, 5-day treatment) [nM] | EC50 ([3]; NCI-H358 cells, 4 hours) [nM] | IC50 ([4]; read-out: KRAS G12C FRET IC50) | IC50 [2] [nM] | EC50 ([3]; NCI-H358, 4 h) [nM] | IC50 ([4]; KRAS G12C FRET IC50) [nM]
CCn1c(-c2cccnc2[C@H](C)OC)c2c3cc(ccc31)-c1csc(n1)C[C@H](NC(=O)[C@H](C(C)C)N1C[C@@H](c3ccccc3)CC1=O)C(=O)N1CCC[C@H](N1)C(=O)OCC(C)(C)C2 (single isomer, unassigned) [Compound A544] | 100 to 1000 | 100 to 1000 | < 5000 | – | – | – | –
CCn1c(-c2cccnc2[C@H](C)OC)c2c3cc(ccc31)-c1cc(O)cc(c1)C[C@H](NC(=O)[C@H](C(C)C)N(C)C(=O)[C@H]1CCN(C(C)=O)C1)C(=O)N1CCC[C@H](N1)C(=O)OCC(C)(C)C2 [Compound A5] | 100 to 1000 | 100 to 1000 | < 5000 | – | – | – | –
CCn1c(-c2cccnc2[C@H](C)OC)c2c3cc(ccc31)-c1cccc(c1)C[C@H](NC(=O)[C@H](C(C)C)N(C)C(C)=O)C(=O)N1CCC[C@H](N1)C(=O)OCC(C)(C)C2 [Compound A61] | 1000 to 10000 | 1000 to 10000 | < 5000 | – | – | – | –
CCn1c(-c2cccnc2[C@H](C)OC)c2c3cc(ccc31)-c1csc(n1)C[C@H](NC(=O)[C@H](C(C)C)N(C)C(=O)[C@H]1CCN(C(=O)CN(C)C)C1)C(=O)N1CCC[C@H](N1)C(=O)OCC(C)(C)C2 [Compound A97] | 1000 to 10000 | 1000 to 10000 | < 5000 | – | – | – | –
CCn1c(-c2cccnc2[C@H](C)OC)c2c3cc(ccc31)-c1cccc(c1)C[C@H](NC(=O)[C@H](C(C)C)N(C)C(=O)[C@H]1CCNC1)C(=O)N1CCC[C@H](N1)C(=O)OCC(C)(C)C2 [Compound A119] | – | > 10000 | < 5000 | 100 to 1000 nM | – | – | –
CCn1c(-c2cccnc2[C@H](C)OC)c2c3cc(ccc31)-c1cc(O)cc(c1)C[C@H](NC(=O)C(=C(C)C)N(C)C(C)=O)C(=O)N1CCC[C@H](N1)C(=O)OCC(C)(C)C2 [Compound A142] | – | > 10000 | < 5000 | 10 to 100 nM | – | – | –
CCn1c(-c2cccnc2[C@H](C)OC)c2c3cc(ccc31)-c1cc(cc3nc[nH]c13)C[C@H](NC(=O)[C@H](C(C)C)N(C)C(C)=O)C(=O)N1CCC[C@H](N1)C(=O)OCC(C)(C)C2 [Compound A153] | – | > 10000 | < 5000 | 10 to 100 nM | – | – | –
CCn1c(-c2cccnc2[C@H](C)OC)c2c3cc(ccc31)-c1cc(cc(S(C)(=O)=O)c1)C[C@H](NC(=O)[C@H](C(C)C)N(C)C(C)=O)C(=O)N1CCC[C@H](N1)C(=O)OCC(C)(C)C2 [Compound A154] | – | > 10000 | < 5000 | 10 to 100 nM | – | – | –
CCn1c(-c2cccnc2[C@H](C)OC)c2c3cc(ccc31)-c1cc(O)cc(c1)C[C@H](NC(=O)[C@H](C(C)C)N(C)C(=O)[C@H]1CCN(C3CC3)C1)C(=O)N1CCC[C@H](N1)C(=O)OCC(C)(C)C2 [Compound A175] | – | 1000 to 10000 | < 5000 | < 10 nM | – | – | –
CCn1c(-c2cccnc2[C@H](C)OC)c2c3cc(ccc31)-c1cc(O)cc(c1)C[C@H](NC(=O)C1CCC3C1C3(F)F)C(=O)N1CCC[C@H](N1)C(=O)OCC(C)(C)C2 (some centres unmarked) [Compound A181] | – | > 10000 | < 5000 | 10 to 100 nM and 100 to 1000 nM | – | – | –
CCn1c(-c2cccnc2[C@H](C)OC)c2c3cc(ccc31)-c1cc(O)cc(c1)C[C@H](NC(=O)[C@@H]1[C@H]3C[C@H]3CN1C(C)=O)C(=O)N1CCC[C@H](N1)C(=O)OCC(C)(C)C2 [Compound A207] | – | > 10000 | < 5000 | 10 to 100 nM | – | – | –
CCn1c(-c2cccnc2[C@H](C)OC)c2c3cc(ccc31)-c1csc(n1)C[C@H](NC(=O)[C@H](C(C)C)N(C)C(=O)[C@H]1CCN(S(C)(=O)=O)C1)C(=O)N1CCC[C@H](N1)C(=O)OCC(C)(C)C2 [Compound A237] | – | – | – | 10 to 100 nM | 1000 to 10000 | < 5000 | –
CCn1c(-c2cccnc2[C@H](C)OC)c2c3cc(ccc31)-c1cc(O)cc(c1)C[C@H](NC(=O)[C@@H](C(C)C)N(C)C(C)=O)C(=O)N1CCC[C@H](N1)C(=O)OCC(C)(C)C2 [Compound A256] | 1000 to 10000 | – | < 5000 | – | – | – | –
CCn1c(-c2cccnc2[C@H](C)OC)c2c3cc(ccc31)-c1csc(n1)C[C@H](NC(=O)C1(F)CCC1)C(=O)N1CCC[C@H](N1)C(=O)OCC(C)(C)C2 [Compound A361] | 100 to 1000 | 100 to 1000 | < 5000 | – | – | – | –
CCn1c(-c2cccnc2[C@H](C)OC)c2c3cc(ccc31)-c1csc(n1)C[C@H](NC(=O)C1(F)CC1)C(=O)N1CCC[C@H](N1)C(=O)OCC(C)(C)C2 [Compound A362] | 100 to 1000 | 100 to 1000 | < 5000 | – | – | – | –
CCn1c(-c2cccnc2[C@H](C)OC)c2c3cc(ccc31)-c1cc(O)cc(c1)C[C@H](NC(=O)[C@H](C(C)C)N(C)C(=O)[C@H]1OCC[C@H]1c1ccccc1)C(=O)N1CCC[C@H](N1)C(=O)OCC(C)(C)C2 [Compound A425] | – | – | < 5000 | < 10 nM | – | – | –
CCn1c(-c2cccnc2[C@H](C)OC)c2c3cc(ccc31)-c1cc(O)cc(c1)C[C@H](NC(=O)[C@H](C(C)C)N(C)C(=O)C1CNCCNC1)C(=O)N1CCC[C@H](N1)C(=O)OCC(C)(C)C2 [Compound A432] | – | – | < 5000 | 10 to 100 nM | – | – | –
CCn1c(-c2cc(N3CCN(C)CC3)cnc2[C@H](C)OC)c2c3cc(ccc31)-c1csc(n1)C[C@H](NC(=O)[C@H](C(C)C)N(C)C(=O)[C@H]1CCCS1(=O)=O)C(=O)N1CCC[C@H](N1)C(=O)OCC(C)(C)C2 [Compound A439] | < 10 | 10 to 100 | < 5000 | – | – | – | –
CCn1c(-c2cc(N3CCN(C)CC3)cnc2[C@H](C)OC)c2c3cc(ccc31)-c1csc(n1)C[C@H](NC(=O)[C@H](C(C)C)N(C)C(=O)N1CC(OC)C1)C(=O)N1CCC[C@H](N1)C(=O)OCC(C)(C)C2 [Compound A466] | – | – | < 5000 | – | – | – | 10 to 100
CCn1c(-c2cccnc2[C@H](C)OC)c2c3cc(ccc31)-c1csc(n1)C[C@H](NC(=O)[C@H](C(C)C)N(C)C(=O)N1CCC[C@@H]1CN(C)C)C(=O)N1CCC[C@H](N1)C(=O)OCC(C)(C)C2 [Compound A518] | 10 to 100 | 10 to 100 | < 5000 | – | – | – | –
CCn1c(-c2cccnc2[C@H](C)OC)c2c3cc(ccc31)-c1csc(n1)C[C@H](NC(=O)[C@H](C(C)C)N(CCc1ccncc1)C1CC1)C(=O)N1CCC[C@H](N1)C(=O)OCC(C)(C)C2 [Compound A556] | 100 to 1000 | 100 to 1000 | < 5000 | – | – | – | –
CCn1c(-c2cccnc2[C@H](C)OC)c2c3cc(ccc31)-c1csc(n1)C[C@H](NC(=O)[C@H](C(C)C)N(C)C(=O)N1CC[C@@H](F)[C@H](N)C1)C(=O)N1CCC[C@H](N1)C(=O)OCC(C)(C)C2 [Compound A559] | 10 to 100 | 100 to 1000 | < 5000 | – | – | – | –
CCn1c(-c2cccnc2[C@H](C)OC)c2c3cc(ccc31)-c1csc(n1)C[C@H](NC(=O)[C@H](C(C)C)N(C)C(=O)[C@@H]1OCC[C@@H]1c1ccccc1)C(=O)N1CCC[C@H](N1)C(=O)OCC(C)(C)C2 [Compound A585] | 10 to 100 | 100 to 1000 | < 5000 | – | – | – | –
CCn1c(-c2cccnc2[C@H](C)OC)c2c3cc(ccc31)-c1cccc(c1)C[C@H](NC(=O)[C@H](C(C)C)N(C)C(=O)[C@@H]1OCC[C@@H]1c1ccccc1)C(=O)N1CCC[C@H](N1)C(=O)OCC(C)(C)C2 [Compound A586] | 100 to 1000 | 100 to 1000 | < 5000 | – | – | – | –
CCn1c(-c2cccnc2[C@H](C)OC)c2c3cc(ccc31)-c1csc(n1)C[C@H](NC(=O)[C@H](C(C)C)N(C)C(=O)N1CCC[C@H]1c1ccccc1)C(=O)N1CCC[C@H](N1)C(=O)OCC(C)(C)C2 [Compound A599] | 1000 to 10000 | 1000 to 10000 | < 5000 | – | – | – | –
CCn1c(-c2cccnc2[C@H](C)OC)c2c3cc(ccc31)-c1cc(O)cc(c1)C[C@H](NC(=O)[C@H](C(C)C)N(C)C(=O)[C@]1(F)CCN(C(=O)OC)C1)C(=O)N1CCC[C@H](N1)C(=O)OCC(C)(C)C2 [Compound A616] | 100 to 1000 | 100 to 1000 | < 5000 | – | – | – | –
